Our source for the IC50 values is patent publication US7439253B2, “Heterocyclic compounds, their preparation and their use as medicaments, in particular as antibacterials and beta-lactamase inhibitors” (Novexel, priority 2002, dated 2008).

The target in assay [1] is T1, β-lactamase TEM1 (Escherichia coli, UniProt P62593).
T1 construct: The β-lactamases are isolated from bacterial strains resistant to penicillins and to cephalosporins; endogenous in cells; host or cells: E. coli 250HT21 (soluble fraction of French-press lysate, 100 000 G supernatant)
T1 sequence (P62593 24-286 limits assumed): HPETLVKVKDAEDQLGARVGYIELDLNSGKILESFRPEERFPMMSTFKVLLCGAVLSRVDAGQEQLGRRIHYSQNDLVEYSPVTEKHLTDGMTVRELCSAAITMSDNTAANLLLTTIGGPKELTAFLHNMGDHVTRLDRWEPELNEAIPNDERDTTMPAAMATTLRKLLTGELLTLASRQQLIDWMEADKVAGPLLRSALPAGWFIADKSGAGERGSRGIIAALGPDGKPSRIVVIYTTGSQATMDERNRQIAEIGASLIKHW
Nature of the assay: β-lactamase inhibiting activity (Nitrocefin hydrolysis). Type of assay: biochemical, E. coli 250HT21. The procedure: (§1) A. Preparation of the β-lactamases Tem˜1 and P99
(§2) The β-lactamases are isolated from bacterial strains resistant to penicillins and to cephalosporins (Tem1 and P99 are produced by E. coli 250HT21 and E. Cloacae 293HT6, respectively).
(§3) The bacteria are cultured in heart-brain broth at 37 g/l (DIFCO), at 37° C. They are harvested at the end of the exponential phase, cooled and centrifuged. The bacterial pellets are taken up in 50 mM sodium phosphate buffer pH 7.0 and again centrifuged. The bacteria are taken up in two volumes of this same buffer and lyzed by means of a French-Press kept at 4° C. After centrifugation for 1 h at 100 000 G, at 4° C., the supernatants containing the soluble fraction of the bacterial extracts are recovered and frozen at −80° C.
(§4) B. Determination of the β-lactamase Activity
(§5) The method uses, as substrate, Nitrocefin (OXOID), a chromogenic cephalosporin, whose product of hydrolysis by Beta-lactamases is red and absorbs at 485 nm. The β-lactamase activity is kinetically determined by measuring the variation in absorbance at 485 nm resulting from the hydrolysis of the substrate on a plate spectrophotometer (Spectra Max Plus from Molecular Devices). The experiments are performed at 37° C. The quantity of enzyme was normalized and the measurements are performed at the initial speed.
(§6) C. Determination of the β-lactamase Inhibiting Activity
(§7) Two measurements are carried out, without preincubation and with preincubation of the enzyme and of the inhibitor (5 min), in order to test the irreversibility of the reaction. The products are tested at 6 or 8 concentrations in duplicate. The reaction mixture contains 100 μM of Nitrocefin and 50 mM sodium phosphate buffer pH 7.0. D. Calculations of the IC50 Values
(§8) The rates of hydrolysis are measured with and without inhibitor. The concentration of inhibitor which inhibits by 50% the reaction of hydrolysis of Nitrocefin by the enzyme (IC50) is determined. The data processing is carried out with the aid of the GraFit software (Erathycus Software).

The target of assay [2] is T2, β-lactamase P99 (Enterobacter cloacae, UniProt P05364).
T2 construct: The β-lactamases are isolated from bacterial strains resistant to penicillins and to cephalosporins; endogenous in cells; host or cells: E. cloacae 293HT6 (soluble fraction of French-press lysate, 100 000 G supernatant)
T2 sequence (P05364 21-381): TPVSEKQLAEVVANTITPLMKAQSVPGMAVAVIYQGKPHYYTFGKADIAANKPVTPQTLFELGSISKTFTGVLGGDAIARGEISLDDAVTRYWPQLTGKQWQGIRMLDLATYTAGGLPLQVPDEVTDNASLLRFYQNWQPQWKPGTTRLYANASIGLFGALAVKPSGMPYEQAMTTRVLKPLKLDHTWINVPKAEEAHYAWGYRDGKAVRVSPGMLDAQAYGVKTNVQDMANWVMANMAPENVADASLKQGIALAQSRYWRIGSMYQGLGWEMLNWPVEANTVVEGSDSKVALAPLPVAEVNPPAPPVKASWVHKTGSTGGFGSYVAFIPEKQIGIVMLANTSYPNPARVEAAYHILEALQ
The assay is described as follows: biochemical. Type of assay: biochemical. The procedure: as §1, §2, §3, §4, §5, §6, §7, §8

Where [3] appears, read: 100 μM Nitrocefin, 50 mM sodium phosphate buffer pH 7.0, 37° C., read-out: IC50 nM/TEM1.
Setting [4] is: 100 μM Nitrocefin, 50 mM sodium phosphate buffer pH 7.0, 37° C.

Structures are written as SMILES. Structures can show the parent of a compound that is named as a salt. Where two headings read alike, the source gives them in different places.

As for `COC(=O)[C@@H]1c2nn(CCc3ccccc3)cc2[C@H]2CN1C(=O)N2OS(=O)(=O)O` (relative stereo) [Example 3, Triethylammonium Salt of Methyl trans-2,5,6,8-tetrahydro-6-oxo-2-(2-phenylethyl)-5-(sulfoxy)-4H-4,7-methanopyrazolo[3,4-e][1,3]diazepine-8-carboxylate], the IC50 in assay [1] (setting [3]) was determined as 2 nM; in assay [2] (setting [4]), 11 nM.
Turning to `CCc1ccccc1-c1cc2c(s1)[C@@H](C(N)=O)N1C[C@H]2N(OS(=O)(=O)O)C1=O` (relative stereo) [Example 26, Sodium Salt of Trans-2-(2-ethylphenyl)-4,5,6,8-tetrahydro-6-oxo-5-(sulfoxy)-4,7-methano-7H-thieno[2,3-e][1,3]diazepine-8-carboxamide], the IC50 in assay [1] (setting [3]) was 1 nM; in assay [2] (setting [4]), 6 nM.
The corresponding values for `CCNC(=O)Oc1ccc2c(c1)[C@@H]1CN(C(=O)N1OS(=O)(=O)O)[C@H]2C(=O)OCC` (relative stereo) [Example 38, Sodium Salt of Ethyl Trans-8-[[(ethylamino)carbonyl]oxy]-1,2,3,5-tetrahydro-3-oxo-2-(sulfoxy)-1,4-methano-4H-2,4-benzodiazepine-5-carboxylate] are 59 nM and 19 nM.
Regarding `O=C1N2Cc3c(cnn3-c3ccccc3)C(C2)N1OS(=O)(=O)O` (stereo not drawn) [Example 46, Sodium Salt of 1,4,5,8-tetrahydro-1-phenyl-5-(sulfoxy)-6H-4,7-methanopyrazolo[3,4-e][1,3]diazepin-6-one], the figures for the IC50 in assay [1] and in assay [2] (setting [4]) were 5 nM and 80 nM, respectively.
As for `NC(=O)C1c2nn(-c3ccccc3)cc2C2CN1C(=O)N2OS(=O)(=O)O` (stereo not drawn) [Example 45, Sodium Salt of trans-2,5,6,8-tetrahydro-6-oxo-2-phenyl-5-(sulfoxy)-4H-4,7-methanopyrazolo[3,4-e][1,3]diazepine-8-carboxamide], the values for the IC50 in assay [1] and in assay [2] (setting [4]) were 1 nM and 12 nM, respectively.
On to `CCOC(=O)[C@H]1c2ccc(OS(=O)(=O)C(F)(F)F)cc2[C@@H]2CN1C(=O)N2OS(=O)(=O)O` (relative stereo) [Example 40, Sodium Salt of ethyl trans-1,2,3,5-tetrahydro-3-oxo-2-(sulfoxy)-8-[[(triluoromethyl)sulfonyl]oxy]-1,4-methano-4H-2,4-benzodiazepine-5-carboxylate], for which the values for the IC50 in assay [1] (setting [3]) and in assay [2] (pH 7) were 11 nM and 12 nM, respectively.
